The values below come from article PMC6982354, “Promising New Inhibitors of Tyrosyl-DNA Phosphodiesterase I (Tdp 1) Combining 4-Arylcoumarin and Monoterpenoid Moieties as Components of Complex Antitumor Therapy” (International Journal of Molecular Sciences, 2019).

SMILES strings stand for the structures.

T1 sequence (Q9NUW8 whole entry): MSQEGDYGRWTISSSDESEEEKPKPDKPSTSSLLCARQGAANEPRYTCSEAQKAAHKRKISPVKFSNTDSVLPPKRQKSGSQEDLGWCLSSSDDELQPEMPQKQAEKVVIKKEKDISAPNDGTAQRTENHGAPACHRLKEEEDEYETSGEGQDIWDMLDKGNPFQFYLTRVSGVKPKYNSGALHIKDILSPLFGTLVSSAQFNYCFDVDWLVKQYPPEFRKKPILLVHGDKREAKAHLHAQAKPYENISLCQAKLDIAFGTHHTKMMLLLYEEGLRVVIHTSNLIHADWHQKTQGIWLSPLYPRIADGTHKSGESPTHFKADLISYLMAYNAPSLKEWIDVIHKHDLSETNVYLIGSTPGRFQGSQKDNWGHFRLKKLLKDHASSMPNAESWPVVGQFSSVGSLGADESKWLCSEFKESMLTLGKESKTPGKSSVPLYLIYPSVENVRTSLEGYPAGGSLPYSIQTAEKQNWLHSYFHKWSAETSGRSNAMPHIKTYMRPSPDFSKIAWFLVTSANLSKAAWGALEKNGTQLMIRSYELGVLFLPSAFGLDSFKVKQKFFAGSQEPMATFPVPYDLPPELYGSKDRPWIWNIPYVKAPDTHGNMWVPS

The first assay concerns the target T1, Tdp1 (Homo sapiens, UniProt Q9NUW8).
T1 construct: made in house
Put plainly: Real-time detection of Tdp1 activity (FAM/BHQ1 oligonucleotide biosensor). Conditions: Tdp1 inhibition, 6-point concentration response curve. In kind it is biochemical. The protocol: A previously designed, real-time, hexadecameric oligonucleotide biosensor with 5(6)-carboxyfluorescein (FAM) at the 5′ end and fluorophore quencher BHQ1 (Black Hole Quencher-1) at the 3′-end was used to determine the inhibitory properties of the new compounds.
Real-Time Detection of Tdp1 Activity. The Tdp1 activity measurements were carried out as described. […] Tdp1 inhibition was calculated by comparing the rate of increase in fluorescence in the presence of the compound to that of DMSO control wells. IC50 values were determined using a 6-point concentration response curve. The data were imported into the MARS Data Analysis 2.0 program (BMG LABTECH), and the slope during the linear phase (here data from 0 to 7 min) was calculated.
The IC50 is the concentration that inhibits the measured activity by half. A low value points to greater potency. The compound `CC1(C)[C@@H]2CC=C(COc3ccc4c(-c5ccccc5)cc(=O)oc4c3)[C@H]1C2` [3ad, 7-(((1S,5R)-6,6-Dimethylbicyclo[3.1.1]hept-2-en-2-yl)methoxy)-4-phenyl-2H-chromen-2-one] returned an IC50 of 480 ± 110 nM.

Compound `CC1(C)[C@H]2CC=C(CCOc3ccc4c(-c5ccc(F)cc5)cc(=O)oc4c3)[C@@H]1C2` [3bb, 7-(2-((1R,5S)-6,6-Dimethylbicyclo[3.1.1]hept-2-en-2-yl)ethoxy)-4-(4-fluorophenyl)-2H-chromen-2-one] returned an IC50 of 7500 ± 700 nM.

Compound `CC1(C)[C@H]2CC=C(CCOc3ccc4c(-c5ccccc5)cc(=O)oc4c3)[C@@H]1C2` [3ab, 7-(2-((1R,5S)-6,6-Dimethylbicyclo[3 1.1]hept-2-en-2-yl)ethoxy)-4-phenyl-2H-chromen-2-one] had an IC50 of 410 ± 120 nM.

`CC1(C)[C@H]2CC=C(COc3ccc4c(-c5ccccc5)cc(=O)oc4c3)[C@@H]1C2` [3ac, 7-(((1R,5S)-6,6-Dimethylbicyclo[3.1.1]hept-2-en-2-yl)methoxy)-4-phenyl-2H-chromen-2-one] registered an IC50 of 460 ± 160 nM.

On to `CC(C)=CCC/C(C)=C/COc1ccc2c(-c3ccccc3)cc(=O)oc2c1` [3aa, (E)-7-(3,7-Dimethylocta-2,6-dienyloxy)-4-phenyl-2H-chromen-2-one], for which the IC50 was found to be 490 ± 140 nM.

The compound `CC1(C)[C@@H]2CC=C(COc3ccc4c(-c5ccc(F)cc5)cc(=O)oc4c3)[C@H]1C2` [3bd, 7-(((1S,5R)-6,6-Dimethylbicyclo[3.1.1]hept-2-en-2-yl)methoxy)-4-(4-fluorophenyl)-2H-chromen-2-one] returned an IC50 of 1030 ± 580 nM.

`CC(C)=CCC/C(C)=C/COc1ccc2c(-c3ccc(Br)cc3)cc(=O)oc2c1` [3ca, (E)-4-(4-Bromophenyl)-7-(3,7-dimethylocta-2,6-dienyloxy)-2H-chromen-2-one] returned an IC50 of 900 ± 370 nM.

Consider `COc1ccc(-c2cc(=O)oc3cc(OCc4ccccc4)ccc23)cc1` [10d, 7-(Benzyloxy)-4-(4-methoxyphenyl)-2H-chromen-2-one], for which half-maximal inhibition (IC50) was put at 3310 ± 980 nM.

In the case of `COc1ccc(-c2cc(=O)oc3cc(OCC4=CC[C@@H]5C[C@H]4C5(C)C)ccc23)cc1` [3dd, 7-(((1S,5R)-6,6-Dimethylbicyclo[3.1.1]hept-2-en-2-yl)methoxy)-4-(4-methoxyphenyl)-2H-chromen-2-one], the midpoint of inhibition, the IC50, lay at 590 ± 60 nM.

In turn, `CC1(C)[C@@H]2CC=C(COc3ccc4c(-c5ccc(Br)cc5)cc(=O)oc4c3)[C@H]1C2` [3cd, 4-(4-Bromophenyl)-7-(((1S,5R)-6,6-dimethylbicyclo[3.1.1]hept-2-en-2-yl)methoxy)-2H-chromen-2-one] came in with an IC50 of 430 ± 50 nM.

Compound `COc1ccc(-c2cc(=O)oc3cc(OCCC4=CC[C@H]5C[C@@H]4C5(C)C)ccc23)cc1` [3db, 7-(2-((1R,5S)-6,6-Dimethylbicyclo[3.1.1]hept-2-en-2-yl)ethoxy)-4-(4-methoxyphenyl)-2H-chromen-2-one] had an IC50 of 910 ± 130 nM.

On to `CC1(C)[C@H]2CC=C(COc3ccc4c(-c5ccc(Br)cc5)cc(=O)oc4c3)[C@@H]1C2` [3cc, 4-(4-Bromophenyl)-7-(((1R,5S)-6,6-dimethylbicyclo[3.1.1]hept-2-en-2-yl)methoxy)-2H-chromen-2-one], for which inhibition was half-maximal at 3230 ± 350 nM (IC50).

In the case of `CC1(C)[C@H]2CC=C(CCOc3ccc4c(-c5ccc(Br)cc5)cc(=O)oc4c3)[C@@H]1C2` [3cb, 4-(4-Bromophenyl)-7-(2-((1R,5S)-6,6-dimethylbicyclo[3.1.1]hept-2-en-2-yl)ethoxy)-2H-chromen-2-one], the IC50 came out at 590 ± 70 nM.

As for `COc1ccc(-c2cc(=O)oc3cc(OCC4=CC[C@H]5C[C@@H]4C5(C)C)ccc23)cc1` [3dc, 7-(((1R,5S)-6,6-Dimethylbicyclo[3.1.1]hept-2-en-2-yl)methoxy)-4-(4-methoxyphenyl)-2H-chromen-2-one], the IC50 was determined as 590 ± 150 nM.

`CC1(C)[C@H]2CC=C(COc3ccc4c(-c5ccc(F)cc5)cc(=O)oc4c3)[C@@H]1C2` [3bc, 7-(((1R,5S)-6,6-Dimethylbicyclo[3.1.1]hept-2-en-2-yl)methoxy)-4-(4-fluorophenyl)-2H-chromen-2-one] returned an IC50 of 990 ± 300 nM.

The compound `O=c1cc(-c2ccc(Br)cc2)c2ccc(OCc3ccccc3)cc2o1` [10c, 7-(Benzyloxy)-4-(4-bromophenyl)-2H-chromen-2-one] yielded a concentration for half-maximal inhibition (IC50) of 2400 ± 800 nM.

Still in this assay, the particulars now being: compared with the other derivatives of the series.
With `CC1(C)[C@H]2CC=C(CCOc3ccc4c(-c5ccc(F)cc5)cc(=O)oc4c3)[C@@H]1C2` [3bb, 7-(2-((1R,5S)-6,6-Dimethylbicyclo[3.1.1]hept-2-en-2-yl)ethoxy)-4-(4-fluorophenyl)-2H-chromen-2-one], the “Tdp1 inhibitory activity (in words)” value is reported as “markedly lower activity”.

Regarding `CC1(C)[C@H]2CC=C(COc3ccc4c(-c5ccccc5)cc(=O)oc4c3)[C@@H]1C2` [3ac, 7-(((1R,5S)-6,6-Dimethylbicyclo[3.1.1]hept-2-en-2-yl)methoxy)-4-phenyl-2H-chromen-2-one], the “Tdp1 inhibitory activity (in words)” value is recorded as “slightly less active”.

A further assay has as its system Krebs-2 carcinoma. Put plainly: Influence on antitumor effect of tpc, Krebs-2 ascites tumor model. In kind it is in vivo, mice. The conditions noted are these: tpc only, 0.5 mg/kg i.p. (group 2); control 1750 million per mouse. The protocol: A study of the influence of 3ba on the antitumor effect of tpc (topotecan) was performed using a murine Krebs-2 carcinoma model. An ascitic tumor model combines the advantages of in vitro and in vivo approaches in studying the cytotoxic effect of compounds, since ascitic cells grow in the context of the organism (in vivo), and the intraperitoneal administration of drug ensures its direct contact with tumor cells (in vitro). The experiments were performed using female C57BL/6 mice, which were injected intraperitoneally with 2 × 10^5 ascitic cells on day zero. The mice were divided into six groups of ten animals each.
(§1) Lab animals. Thre-e to four-month-old male and female C57Bl/6 mice from the breeding colony of the Institute of Cytology and Genetics, SB RAS, were used in the study. The animals were kept on sawdust in plastic cages with 5–7 mice per cage, with free access to ground food (“Laboratorkorm”, Moskow, Russia) and tap water. All experiments were performed in accordance with protocols approved by the Animal Care and Use Committee of the Institute of Cytology and Genetics. Also, all experimental procedures were performed in accordance with the Directive 2010/63/EU for animal experiments.
(§2) Tumor models. The experimental tumor used was Lewis Lung Carcinoma (LLC) and Krebs-2. The animals were treated with tpc and the Tdp1 inhibitor 3ba two days after tumor transplantation. The tumor was transplanted into the muscles of the thigh by 0.2 million cells per mouse. Tpc (Sindan Pharma SRL, Romania) was administered intraperitoneally at a single dose of 0.5 mg/kg; Tdp1 inhibitor 3ba was administrated intraperitoneally at a single dose of 20, 40, or 80 mg/kg (for Krebs-2), or 120 mg/kg (for LLC) in 15% dimethyl sulfoxide (DMSO)–10% Tween-80 suspension in water (0.2 mL of suspension per mouse) simultaneously with tpc. Control mice were injected with a DMSO-Tween-80 mixture into the stomach.
(§3) Statistical analysis. The experimenter measuring and calculating the primary animal data (tumor size, lifespan) was blinded. After unblinding, the animal data were statistically processed using oneway ANOVA. Post-hoc testing was completed using Turkey’s Honestly Significant Difference (HSD). p < 0.05 was considered to be statistically significant. The statistical package […] version 12.5 was used for analysis. All results are expressed as mean ± SEM.
`CC[C@@]1(O)C(=O)OCc2c1cc1n(c2=O)Cc2cc3c(CN(C)C)c(O)ccc3nc2-1` [tpc, topotecan, reference compound]: the “number of tumor cells in ascites” value is recorded as 950 mln.

For a further assay, the system named is Lewis carcinoma. Put plainly: Lifespan of mice with ascites variant of Lewis carcinoma. In kind it is in vivo. Conditions: monotherapy at selected doses (tpc 0.5 mg/kg or 3ba 120 mg/kg), unreliable, p > 0.05. As to the method:
We then examined the effect of 3ba in combination with tpc on the lifespan of mice. C57BL/6 mice were intraperitoneally inoculated with the ascites variant of Lewis carcinoma. Group 1: control without treatment; group 2: tpc 0.5 mg/kg intraperitoneally; group 3: tpc and 3ba intraperitoneally 120 mg/kg; and group 4: 3ba 120 mg/kg only.
as §1, §2, §3
Take `CC[C@@]1(O)C(=O)OCc2c1cc1n(c2=O)Cc2cc3c(CN(C)C)c(O)ccc3nc2-1` [tpc, topotecan, reference compound]: the prolongation of life is reported as 13–19%.
